Results reported in US6335038B1, “Composition for the prevention and/or treatment of osteoporosis and alterations due to menopause syndrome” (Sigma-Tau Healthscience S.p.A., priority 1998, dated 2002).

Experiments:
[1] = Toxicological tests, single-dose administration, rats; conditions: single dose: carnitine mixture 600 mg/kg, propionyl L-carnitine 600 mg/kg, soy extract (5% isoflavones) 5 g/kg, genistein 15 mg/kg
[2] = system: prostacyclin synthesis in rat peritoneal macrophages; test: Prostacyclin synthesis tests (PGI2 release by peritoneal macrophages from treated rats); format: in vivo; conditions: for effect on PGI2 synthesis in macrophages (in words): rats treated seven days, versus controls; for Macrophage PGI2 release values compared with controls: rats treated with diet for seven days (carnitine mixture 400 mg/kg, propionyl L-carnitine 400 mg/kg, soy extract 8 g/kg, genistein 40 mg/kg), carrageenin i.p. day 1, controls 0.25 ± 0.03
Procedure: The method used in these tests was the one described by G. R. Elliot in Brit. J. Nutrition, 64, 497, 1990, measuring the release of prostaglandins by peritoneal macrophages isolated from a batch of rats that were administered either the carnitine mixture, or the soy extract, or propionyl L-carnitine, or genistein, or various combinations of these products with their diet for seven days consecutively. The doses given were 400 mg/kg of carnitine mixture, or 400 mg/kg of propionyl L-carnitine, or 8 g/kg of soy extract, or 40 mg/kg of genistein, or the same doses of the various products combined. On day 1 of treatment, all the animals were treated intraperitoneally with 2 cm^3 of solution containing 2 mg of carrageenin. After the last day of treatment, peritoneal macrophages were isolated from the controls and treated rats so as to obtain a […] cell suspension.
One cm^3 of the macrophage preparation thus prepared was incubated for a period of two hours in order to evaluate the basal release or release after 30 minutes after being placed in contact with an ionophore such as […]. The cells were centrifuged and the supernatant analysed for its PGI2 content according to the radioimmunological assay method described by Zijstra et al. (Zijstra, F. J., Vincent, J. E., J. Chromatography, 311, 39, 1984).

[3] = system: MC3T3 osteoblast-like cells; test: Osteoblastic cell growth tests; format: cell-based, mouse; conditions: 72-hour incubation; 0.05 mM carnitine, 0.005 mM isoflavones or genistein; versus controls
Procedure: In view of the important role played by osteoblasts in regulating growth and in bone remodelling, a series of tests was conducted to evaluate whether the presence of carnitines or isoflavonoids and genistein could influence the growth of osteoblastic cells in vitro.

serum osteocalcin = test: Evaluation of changes in serum osteocalcin concentration; format: in vivo, mice; conditions: for Osteocalcin, serum concentration: mice aged at least 7 months, daily with diet; for effect on serum osteocalcin concentrations (in words): mice, versus control animals
Procedure: There is a close correlation between changes in plasma levels of osteocalcin and bone tissue osteoblast activity, and a reduction in osteocalcin plasma levels is an indicator of […] osteoblast activity which appears to underlie osteoporosis in elderly subjects or in the postmenopausal period in women. These tests were performed on a batch of mice aged at least 7 months, divided into various groups of 10 mice each.
The treatment was administered daily for thirty days or sixty days consecutively.

[4] = Toxicological tests, single-dose administration, mice; conditions: single dose: carnitine mixture 600 mg/kg, propionyl L-carnitine 600 mg/kg, soy extract (5% isoflavones) 5 g/kg, genistein 15 mg/kg
[5] = duration of treatment 30 days, controls 120.4 ± 8.6
[6] = duration of treatment 60 days, controls 90.5 ± 7.9

CCC(=O)O[C@H](CC(=O)[O-])C[N+](C)(C)C [Propionyl L-carnitine, propionyl L-carnitine]
mortality or evident signs of toxicity after single dose [1]: without any mortality or evident signs of toxicity | effect on PGI2 synthesis in macrophages (in words) [2]: increase in PGI2 synthesis | Macrophage PGI2 release values compared with controls [2]: 3.0 ± 0.22 ng/2 × 10^−6 cells | effect on growth of osteoblastic cells (in words) [3]: modest effect on the growth of cells | Osteocalcin, serum concentration (serum osteocalcin; [5]): 130.7 ± 10.1 ng/mL | Osteocalcin, serum concentration (serum osteocalcin; [6]): 98.5 ± 8.1 ng/mL | effect on serum osteocalcin concentrations (in words) (serum osteocalcin): capable of increasing the serum osteocalcin concentrations | mortality or evident signs of toxicity after single dose [4]: without any mortality or evident signs of toxicity

O=c1c(-c2ccc(O)cc2)coc2cc(O)cc(O)c12 [Genistein, 4′,5,7-trihydroxyisoflavone]
mortality or evident signs of toxicity after single dose [1]: without any mortality or evident signs of toxicity | effect on PGI2 synthesis in macrophages (in words) [2]: only modest | Macrophage PGI2 release values compared with controls [2]: 0.39 ± 0.27 ng/2 × 10^−6 cells | effect on growth of osteoblastic cells (in words) [3]: neither the isoflavones nor genistein appear to influence the normal growth rate of the cells | Osteocalcin, serum concentration (serum osteocalcin; [5]): 135.9 ± 10.2 ng/mL | Osteocalcin, serum concentration (serum osteocalcin; [6]): 100.1 ± 10.2 ng/mL | effect on serum osteocalcin concentrations (in words) (serum osteocalcin): capable of increasing the serum osteocalcin concentrations | mortality or evident signs of toxicity after single dose [4]: without any mortality or evident signs of toxicity
